Format in all cases: in vivo
For one test, the system named is SETVI (Setaria viridis). Briefly: greenhouse post-emergence herbicidal test. The following applies: scale from 0 to 100. An excerpt:
(§1) The seeds of the test plants were sown separately for each species. For the pre-emergence treatment, the active ingredients, which had been suspended or emulsified in water, were applied directly after sowing by means of finely distributing nozzles. The containers were irrigated gently to promote germination and growth and subsequently covered with transparent plastic hoods until the test plants had rooted. This cover caused uniform germination of the test plants, unless this had been impaired by the active ingredients. For the post-emergence treatment, the test plants were first grown to a height of 3 to 15 cm, depending on the plant habit, and only then treated with the active ingredients which had been suspended or emulsified in water. For this purpose, the test plants were either sown directly and grown in the same containers, or they were first grown separately as seedlings and transplanted into the test containers a few days prior to treatment. Depending on the species, the test plants were kept at 10-25° C. or 20-35° C., respectively. The test period extended over 2 to 4 weeks. During this time, the test plants were tended, and their response to the individual treatments was evaluated. Evaluation was carried out using a scale from 0 to 100. 100 means no emergence of the test plants, or complete destruction of at least the aerial moieties, and 0 means no damage, or normal course of growth. A good herbicidal activity is given at values of 70 to 90 and a very good herbicidal activity is given at values of 90 to 100. The test plants used in the greenhouse experiments were of the following species: [table]

For test [1], the system named is ECHCG (Echinocloa crus-galli). Briefly: greenhouse post-emergence herbicidal test. The following applies: 0.63 kg/ha, scale from 0 to 100.
Description: as §1

For the next test, the system named is AVEFA (Avena fatua). Briefly: greenhouse post-emergence herbicidal test. Conditions: scale from 0 to 100, read-out: herbicidal activity against AVEFA; for pest or weed control at 630 g/ha: 0.63 kg/ha; for pest or weed control at 250 g/ha: 0.250 kg/ha; for pest or weed control at 125 g/ha: 0.125 kg/ha.
Description: as §1

The test system of test [2] is APESV (Apera spica-venti). Briefly: greenhouse pre-emergence herbicidal test. The following applies: scale from 0 to 100, read-out: herbicidal activity against APESV; for pest or weed control at 250 g/ha: pre-emergence, 0,250 kg/ha; for pest or weed control at 125 g/ha: pre-emergence, 0.125 kg/ha.
Description: as §1

Test [3] concerns ABUTH (Abutilon theophrasti). As to the kind of experiment: greenhouse post-emergence herbicidal test. The following applies: 0.500 kg/ha, scale from 0 to 100.
Description: as §1

The test system of test [4] is AMARE (Amaranthus retroflexus). As to the kind of experiment: greenhouse post-emergence herbicidal test. The following applies: scale from 0 to 100.
Description: as §1

Test [5] relates to ALOMY (Alopercurus myosuroides). As to the kind of experiment: greenhouse post-emergence herbicidal test. The following applies: 0.125 kg/ha, scale from 0 to 100.
Description: as §1

Test [6] concerns AMARE (Amaranthus retroflexus). As to the kind of experiment: greenhouse pre-emergence herbicidal test. The following applies: 0.125 kg/ha, scale from 0 to 100.
Description: as §1

The next test has as its system SETFA (Setaria faberi). Briefly: greenhouse pre-emergence herbicidal test. Conditions: scale from 0 to 100.
Description: as §1

Test [7] has as its system POLCO (Fallopia convolvulus). As to the kind of experiment: greenhouse post-emergence herbicidal test. Conditions: 0.63 kg/ha, scale from 0 to 100.
Description: as §1

Test [8] deals with ECHCG (Echinocloa crus-galli). As to the kind of experiment: greenhouse pre-emergence herbicidal test. Conditions: pre-emergence, 0,250 kg/ha, scale from 0 to 100.
Description: as §1

Here are results for 11 compounds from US12617803B2, “Condensed isoxazoline derivatives and their use as herbicides” (BASF SE, priority 2020, dated 2026).

SMILES strings stand for the structures.

As for `COC(=O)[C@H]1C[C@@H](NC(=O)C23CCC2C(c2cc(Cl)cc(Cl)c2)=NO3)CO1` (some centres unmarked) [I20], the “herbicidal activity against SETVI” value in the test with SETVI (Setaria viridis) (0.63 kg/ha) is on record as “very good (a very good herbicidal activity is given at values of 90 to 100)”. In addition, the “herbicidal activity against ECHCG” value in [1] is on record as “good (A good herbicidal activity is given at values of 70 to 90)”. Besides, the pest or weed control at 630 g/ha in the test on AVEFA (Avena fatua) was 90 to 100%.
With `COC(=O)[C@@H]1C=C[C@H](NC(=O)C23NCCC2C(c2cc(Cl)cc(Cl)c2)=NO3)C1` (stereo partly drawn) [I10, methyl (1S,4R)-4-[3-(3,5-dichlorophenyl)-3aH,4H,5H,6H-pyrrolo[3,2-d][1,2]oxazole-6a-amido]cyclopent-2-ene-1-carboxylate], the pest or weed control at 250 g/ha in the test on AVEFA (Avena fatua) fell in the range of 90 to 100%; in test [2] it was 70 to 90%.
For `COC(=O)C1C=C[C@H](NC(=O)C23CC2C(c2cc(Cl)cc(Cl)c2)=NO3)C1` (some centres unmarked) [I17], in that order: 90 to 100% and 90 to 100%.
As to `COC(=O)CC[C@H](C)NC(=O)C12ON=C(c3cc(F)cc(F)c3)C1CCS2` (some centres unmarked) [I15], the “herbicidal activity against SETVI” value with SETVI (Setaria viridis) (0.500 kg/ha) is given as “very good (a very good herbicidal activity is given at values of 90 to 100)”. In addition, the “herbicidal activity against ABUTH” value in test [3] is “good (A good herbicidal activity is given at values of 70 to 90)”. Besides, the pest or weed control at 500 g/ha in the test on AVEFA (Avena fatua) (0.500 kg/ha) was 90 to 100%; in test [2] (pre-emergence, 0,500 kg/ha), 70 to 90%.
On to `COC(=O)[C@@H]1C=C[C@H](NC(=O)C23CCCC2C(c2cc(Cl)cc(Cl)c2)=NO3)C1` (some centres unmarked) [I1], for which the “herbicidal activity against AMARE” value in test [4] (0.125 kg/ha) and in test [6] was “very good (a very good herbicidal activity is given at values of 90 to 100)” throughout. In addition, the pest or weed control at 125 g/ha was 70 to 90% in the test on AVEFA (Avena fatua) and 90 to 100% in test [2]. Besides, the “herbicidal activity against ALOMY” value in test [5] was “good (A good herbicidal activity is given at values of 70 to 90)”.
Regarding `COC(=O)[C@@H]1C=C[C@H](NC(=O)C23ON=C(c4cc(Cl)cc(Cl)c4)C2CCC3(C)C)C1` (some centres unmarked) [I12], the “herbicidal activity against SEFTA” value in the test on SETFA (Setaria faberi) (pre-emergence, 0.125 kg/ha) was “good (A good herbicidal activity is given at values of 70 to 90)”.
On to `COC(=O)CC[C@H](C)NC(=O)C12CC1C(c1cc(F)cc(F)c1)=NO2` (stereo partly drawn) [I16, methyl (4S)-4-[[4-(3,5-difluorophenyl)-2-oxa-3-azabicyclo[3.1.0]hex-3-ene-1-carbonyl]amino]pentanoate], for which the pest or weed control at 250 g/ha fell in the range of 90 to 100% with AVEFA (Avena fatua) and 70 to 90% in [2].
`COC(=O)[C@@H]1C=C[C@H](NC(=O)C23C=CCC2C(c2cc(F)cc(F)c2)=NO3)C1` (stereo partly drawn) [I19, methyl (1S,4R)-4-[[3-(3,5-difluorophenyl)-3a,4-dihydrocyclopenta[d]isoxazole-6a-carbonyl]amino]cyclopent-2-ene-1-carboxylate]: the pest or weed control at 250 g/ha (in the test with AVEFA (Avena fatua); in test [2]) was 90 to 100% in each case. Also, the “herbicidal activity against SETFA” value with SETFA (Setaria faberi) (pre-emergence, 0,250 kg/ha) is recorded as “very good (a very good herbicidal activity is given at values of 90 to 100)”.
As to `COC(=O)CC[C@H](C)NC(=O)C12CCCC1C(c1cc(Cl)cc(Cl)c1)=NO2` (some centres unmarked) [I2], the “herbicidal activity against AMARE” value in [4] (0.125 kg/ha) is “good (A good herbicidal activity is given at values of 70 to 90)”. The pest or weed control at 125 g/ha in the test with AVEFA (Avena fatua) lay within 90 to 100%; in [2] it was 70 to 90%. For the same compound, the “herbicidal activity against ALOMY” value in [5] was “very good (a very good herbicidal activity is given at values of 90 to 100)”.
As to `COC(=O)[C@H]1CC[C@H](NC(=O)C23CCC2C(c2cc(Cl)cc(Cl)c2)=NO3)C1` (some centres unmarked) [I21], the “herbicidal activity against AMARE” value in test [4] (0.63 kg/ha) is on record as “very good (a very good herbicidal activity is given at values of 90 to 100)”. In test [7], the “herbicidal activity against POLCO” value is on record as “good (A good herbicidal activity is given at values of 70 to 90)”. The pest or weed control at 630 g/ha with AVEFA (Avena fatua) lay in the range of 70 to 90%.
With `COC(=O)[C@@H]1C=C[C@H](NC(=O)C23ON=C(c4cc(Cl)cc(Cl)c4)C2CCS3)C1` (stereo partly drawn) [I13, methyl (1S,4R)-4-[[3-(3,5-dichlorophenyl)-4,5-dihydro-3aH-thieno[3,2-d]isoxazole-6a-carbonyl]amino]cyclopent-2-ene-1-carboxylate], the pest or weed control at 250 g/ha (with AVEFA (Avena fatua); in test [2]) was 90 to 100% each time. Also, the “herbicidal activity against ECHCG” value in [8] was “very good (a very good herbicidal activity is given at values of 90 to 100)”.
